Values quoted from earlier work, collected in US9044417B2, “Mineral, nutritional, cosmetic, pharmaceutical, and agricultural compositions and methods for producing the same” (Core Intellectual Properties Holdings, LLC, priority 2003, dated 2015).

Conditions: aqueous solutions of glycolic acid, pH=3.0; general statement for comparison

## O=C(O)CO [glycolic acid]
  sting or burning when applied to freshly shaven skin: will sting or burn
